Test results: US4347319A, “Microbiological epoxidation process” (priority 1980, dated 1982)
Each block holds one compound with its values, some of them ahead of it.

Assays:
[1] = test system: cell extract of Kloeckera sp. strain A2 NRRL-Y-11,420; assay: Oxidation of secondary alcohols to methylketone by cell extracts of yeasts; type: biochemical; details: methanol-grown; cell extract + NAD^+; sec. alcohol to methyl ketone; gas chromatography
[2] = test system: Torulopsis sp. Strain A1 (NRRLY-11,419); assay: Oxidation of sec-alcohols to ketones by cell suspensions of yeasts; type: cell-based; details: sec-alcohol to methyl ketone
[3] = test system: Kloeckera sp. Strain A2 (NRRLY-11,420); assay: as above; type: cell-based; details: sec-alcohol to methyl ketone
[4] = test system: Methylobacter vinelandii CRL M5Y NRRL B-11,218; assay: Sec. alcohol oxidation by cell suspensions of methanol-grown cells; type: cell-based; details: sec. alcohol to methyl ketone
Source text: (§1) In this example, the procedure of Example 1 was repeated except that a plurality of the methane-utilizing methylotrophic microorganisms of the invention were each aerobically grown in a methanol-containing nutrient medium instead of a methane-containing medium. The nutrients in the medium were the same as indicated in Example 1 except that 0.4% v/v methanol was used as the alcohol dehydrogenase enzyme inducer and major source of carbon and energy for growth. Following growth the cells were harvested and washed as described in Example 1. The resting cells of the induced methanol-grown methylotrophic microorganisms were then contacted with a […] under aerobic conditions in a buffered solution by the procedure described in Example 1.

[5] = test system: Methylosinus trichosporium CRL 15 NRRL B-11,202; assay: as above; type: cell-based; details: sec. alcohol to methyl ketone
Source text: as §1

[6] = test system: Methylobacter chroococcum CRL M6 NRRL B-11,214; assay: as above; type: cell-based; details: sec. alcohol to methyl ketone
Source text: as §1

[7] = test system: Methylomonas methanica CRL M4P NRRL B-11,205; assay: as above; type: cell-based; details: sec. alcohol to methyl ketone
Source text: as §1

[8] = test system: Methylococcus capsulatus CRL M1 NRRL B-11,219; assay: as above; type: cell-based; details: sec. alcohol to methyl ketone
Source text: as §1

[9] = test system: Methylocystis parvus CRL 18 NRRL B-11,204; assay: as above; type: cell-based; details: sec. alcohol to methyl ketone
Source text: as §1

[10] = test system: Methylobacterium organophilum CRL 26 NRRL B-11,222; assay: as above; type: cell-based; details: sec. alcohol to methyl ketone
Source text: as §1

Pichia sp. NRRL-Y-11328 = assay: Oxidation of sec-alcohols to ketones by cell suspensions of yeasts; type: cell-based; details: sec-alcohol to methyl ketone
[11] = test system: Candida utilis ATCC 26387; assay: as above; type: cell-based; details: sec-alcohol to methyl ketone
[12] = test system: Hansenula polymorpha ATCC 26012; assay: as above; type: cell-based; details: sec-alcohol to methyl ketone
[13] = test system: purified secondary alcohol dehydrogenase from Pichia sp. NRRL Y-11,328; assay: Substrate specificity, electron acceptor and stoichiometry of purified yeast SADH; type: biochemical; details: examined spectrophotometrically
[14] = test system: cell extract of Candida utilis ATCC 26,387; assay: Oxidation of secondary alcohols to methylketone by cell extracts of yeasts; type: biochemical; details: methanol-grown; cell extract + NAD^+; sec. alcohol to methyl ketone; gas chromatography
[15] = test system: cell extract of Pichia sp. NRRL-Y-11,328; assay: as above; type: biochemical; details: methanol-grown; cell extract + NAD^+; sec. alcohol to methyl ketone; gas chromatography
[16] = test system: cell extract of Hansenula polymorpha ATCC 26,012; assay: as above; type: biochemical; details: methanol-grown; cell extract + NAD^+; sec. alcohol to methyl ketone; gas chromatography
[17] = test system: cell extract of Torulopsis sp. strain A1 NRRL-Y-11,419; assay: as above; type: biochemical; details: methanol-grown; cell extract + NAD^+; sec. alcohol to methyl ketone; gas chromatography
[18] = test system: Methylocystis parvus (CRL 18 PM4) NRRL B-11,204; assay: Oxidation by washed cell suspensions of methane-grown cells; type: cell-based; details: methane-grown cells; product 2-butanone
Protocol: The pH of the nutrient medium was adjusted to 7.0 by the addition of acid or base and 50 ml samples of the nutrient medium were charged into a plurality of 300 ml shaker flasks. The shaker flasks were inoculated with an inoculating loop of cells from an agar plate containing homogeneous colonies of the microorganisms on the plate (the purity of the isolates was confirmed by microscopic examination. The isolates had been maintained on agar plates under an atmosphere of methane and air having a 1:1 v/v gas ratio which had been transferred evey two weeks. The gaseous phase of the inoculated flasks was then replaced with a gas mixture comprised of methane and air having a ratio of 1:1 on a v/v basis. The inoculated flasks were sealed air tight and were incubated on a rotary shaker of orbital radius 2.5 cm at 250 rpm and at 30° C. for two days until turbidity in the medium had developed.
The cells were harvested by centrifugation at 10,000×g. at 4° C. for 30 minutes. The cell pellet was washed twice with a 0.15 M phosphate buffer at a pH of 7.0 (containing 0.002 M MgCl2). The washed cells were then suspended in a 0.15 M phosphate buffer at pH 7.0.
A 0.5 ml sample of each washed cell suspension (2 mg cells) was put into 10 ml vials at 4° C. which were sealed with a rubber cap. The gaseous phase of the vials was removed with vacuum and then was replaced with a gas mixture of the oxidative substrate (e.g., methane) and oxygen at a 1:1 v/v ratio. The vials were then incubated at 30 ° C. on a rotary shaker at 300 rpm. Samples of product (3 μl) were withdrawn periodically with a microsyringe and the products were analyzed by gas chromatography (ionization flame detector column).
The newly discovered and isolated microorganism strains of the present invention were each grown aerobically in the presence of methane in the manner described above. The methane-grown microbial cells were then washed, recovered and put to use in oxidizing an oxidative substrate by the procedure described above except in the case of a liquid substrate 10 μl of the substrate were used.

- oxidation by the purified enzyme [13]: catalyzed the oxidation
Structure (SMILES): CCCC(C)O (stereo not drawn) [2-Pentanol]
- Conversion Rate [1]: 1.2 μmoles/hr/mg Protein
- Conversion Rate ([2]; growth substrate Ethanol): 1.2 μmoles/hr/mg of protein
- Conversion Rate ([2]; growth substrate Methanol): 1.0 μmoles/hr/mg of protein
- Conversion Rate ([2]; growth substrate Methylamine): 0.9 μmoles/hr/mg of protein
- Conversion Rate ([2]; growth substrate Methylformate): 1.1 μmoles/hr/mg of protein
- Conversion Rate ([2]; growth substrate Propylamine): 0.62 μmoles/hr/mg of protein
- Conversion Rate ([3]; growth substrate Ethanol): 1.0 μmoles/hr/mg of protein
- Conversion Rate ([3]; growth substrate Methanol): 1.2 μmoles/hr/mg of protein
- Conversion Rate ([3]; growth substrate Methylamine): 1.0 μmoles/hr/mg of protein
- Conversion Rate ([3]; growth substrate Methylformate): 1.2 μmoles/hr/mg of protein
- Conversion Rate ([3]; growth substrate Propylamine): 0.92 μmoles/hr/mg of protein
- Conversion Rates [4]: 0.05 μmoles/hr/mg protein
- Conversion Rates [5]: 0.09 μmoles/hr/mg protein
- Conversion Rates [6]: 0.08 μmoles/hr/mg protein
- Conversion Rates [7]: 0.05 μmoles/hr/mg protein
- Conversion Rates [8]: 0.24 μmoles/hr/mg protein
- Conversion Rates [9]: 0.07 μmoles/hr/mg protein
- Conversion Rates [10]: 1.0 μmoles/hr/mg protein
- Conversion Rate (Pichia sp. NRRL-Y-11328; growth substrate Ethanol): 1.0 μmoles/hr/mg of protein
- Conversion Rate (Pichia sp. NRRL-Y-11328; growth substrate Methanol): 1.2 μmoles/hr/mg of protein
- Conversion Rate (Pichia sp. NRRL-Y-11328; growth substrate Methylamine): 0.72 μmoles/hr/mg of protein
- Conversion Rate (Pichia sp. NRRL-Y-11328; growth substrate Methylformate): 0.98 μmoles/hr/mg of protein
- Conversion Rate (Pichia sp. NRRL-Y-11328; growth substrate Propylamine): 0.60 μmoles/hr/mg of protein
- Conversion Rate ([11]; growth substrate Ethanol): 1.0 μmoles/hr/mg of protein
- Conversion Rate ([11]; growth substrate Methanol): 1.5 μmoles/hr/mg of protein
- Conversion Rate ([11]; growth substrate Methylamine): 1.2 μmoles/hr/mg of protein
- Conversion Rate ([11]; growth substrate Methylformate): 1.3 μmoles/hr/mg of protein
- Conversion Rate ([11]; growth substrate Propylamine): 0.9 μmoles/hr/mg of protein
- Conversion Rate ([12]; growth substrate Ethanol): 1.1 μmoles/hr/mg of protein
- Conversion Rate ([12]; growth substrate Methanol): 1.4 μmoles/hr/mg of protein
- Conversion Rate ([12]; growth substrate Methylamine): 1.2 μmoles/hr/mg of protein
- Conversion Rate ([12]; growth substrate Methylformate): 1.3 μmoles/hr/mg of protein
- Conversion Rate ([12]; growth substrate Propylamine): 0.82 μmoles/hr/mg of protein
- Conversion Rate [14]: 0.82 μmoles/hr/mg Protein
- Conversion Rate [15]: 1.2 μmoles/hr/mg Protein
- Conversion Rate [16]: 1.0 μmoles/hr/mg Protein
- Conversion Rate [17]: 1.0 μmoles/hr/mg Protein

Structure (SMILES): CCC(C)=O [Butanone]
- Conversion Rate to Ketone [18]: 1.0 μmoles/hr/mg Protein
